One experiment concerns the target T1, α1 -Adrenoceptor (Oryctolagus cuniculus, UniProt O02824).
T1 construct: smooth muscle strips were prepared from prostate and proximal urethra; from tissue; host or cells: rabbit prostate and proximal urethra smooth muscle strips
T1 sequence (O02824 1-466): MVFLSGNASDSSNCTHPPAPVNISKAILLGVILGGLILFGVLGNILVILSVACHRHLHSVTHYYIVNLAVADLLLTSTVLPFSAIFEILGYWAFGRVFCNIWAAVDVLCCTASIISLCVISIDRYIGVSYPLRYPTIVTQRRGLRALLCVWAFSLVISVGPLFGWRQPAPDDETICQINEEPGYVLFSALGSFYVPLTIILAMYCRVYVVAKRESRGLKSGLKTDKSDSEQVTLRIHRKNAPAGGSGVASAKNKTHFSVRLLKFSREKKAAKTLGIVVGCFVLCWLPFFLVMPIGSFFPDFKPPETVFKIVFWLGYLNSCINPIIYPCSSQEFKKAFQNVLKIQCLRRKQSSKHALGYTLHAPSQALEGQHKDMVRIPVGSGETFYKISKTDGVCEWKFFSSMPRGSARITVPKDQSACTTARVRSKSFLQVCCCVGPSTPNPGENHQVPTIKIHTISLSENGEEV
Nature of the experiment: α1-Adrenoceptor blocking action (antagonism of phenylephrine-induced contraction of isolated urethra and prostate strips). Format: cell-based, rabbit (male albino). The procedure:
α1 -Adrenoceptor Blocking Action
Male albino rabbits were sacrificed by exsanguination, and the prostate and urethra were isolated. After removal of fat and connective tissues, tranverse smooth muscle strips were prepared from prostate and proximal urethra. Each segmental strip was suspended in an organ bath at 37° C. in a Krebs-Henseleit solution which had been bubbled with 95% O2 and 5% CO2. The isometric contraction under a resting tension of 1 g was recorded with a force-displacement transducer(TB-651T, Nihon Koden) on a recoder(RECTI HORIZ 8K, Nihon Sanei).
After an equilibration of tissues at least 60 minutes, contractions were elicited by repeated dose of phenylephrine until constant contraction responses were obtained. Subsequently, the dose-response curves were obtained by increasing concentrations of phenylephrine(10^-7 -×10^-4 M). After the resting period for 60 minutes, tissues were incubated with test drugs for 30 minutes and dose-response curves were constructed as described above.
In all cases, 10^-5 M propranolol(β-adrenoceptor antagonist) was administered 10 minutes before the contraction by phenylephrine.
The composition of the Krebs-Henseleit solution was as follows(mM): NaCl 118.4, KCl 4.7, MgSO4 1.2, CaCl2 2.5, NaHCO3 25.0, glucose 11.1, KH2 PO4 1.2.
The potency of each test drug was expressed as the pA2 value(negative logarithm of the antagonist dissociation constant).

Experiment [1] concerns the target Testosterone 5α-reductase. Description: Testosterone 5α-reductase inhibitory action (nuclear fraction of ventral prostate). In kind it is biochemical, rat (male Wistar). As to conditions: rat ventral prostate nuclear fraction; [4-^14 C]-testosterone, NADPH; 60 min at 37° C. The procedure:
Testosterone 5α-Reductase Inhibitory Action
Male Wistar rats (age: 9-10 weeks old) were anesthetized with ethyl ether and ventral prostates were dissected. The isolated prostates were weighed and homogenized with ultradisperser(Yamato, Japan) and teflon-glass homogenizer in 3 tissue volumes of 50 mM Tris-HCl buffer(pH 7.2) containing 0.25M sucrose and 1 mM dithiothreitol. The homogenates were filtered with gauze and centrifuged at 3,000 rpm for 10 minutes at 4° C. The pellets were resuspended in same buffer as described above and the resultant suspension was used as the nuclear fraction.
Testosterone 5α-reductase activity was carried out described as follows. The reaction mixture contained […] of nuclear fraction 0.1 ml of 5 mM NADPH, 0.01 ml of test drug dissolved in dimethylsulfoxide and 0.78ml of Tris-HCl buffer(pH 7.0). The reaction was started by addition of 0.01 ml of 150 μM [4-^14 C]-testosterone and incubated for 60 minutes at 37° C. After incubation, reaction was stopped by adding 4 ml of ethyl acetate. 3 ml of ethyl acetate was evaporated under nitrogen to dryness and dissolved in 40 μl of ethyl acetate. 10 μl of ethyl acetate was applied to silica gel thin layer plate(HF254, Merck) and the plate was developed in ethyl acetate and cyclohexane(1:1). The plate was subjected to autoradiography and the radioactivity profiles were determined by scraping the spots of testosterone, dihydrotestosterone and other metabolites and counting in a scintillation counter. Testosterone 5a -reductase activity was calculated for the total radioactivity and radioactivities of dihydrotestosterone and other metabolites. The inhibitory activity of test drug was expressed as IC50 (nM).

[2] abbreviates: isolated rabbit prostate strips, phenylephrine contraction, 30 min incubation with drug, 10^-5 M propranolol, pA2 = negative logarithm of antagonist dissociation constant, read-out: Prostate (pA2) (converted).
The mark [3] stands for this setting: isolated rabbit proximal urethra strips, phenylephrine contraction, 30 min incubation with drug, 10^-5 M propranolol, pA2 = negative logarithm of antagonist dissociation constant, read-out: Urethra (pA2) (converted).

Here are results for 20 compounds from patent US5760040A, “Indole derivative for treating overproduction of dihydrotestosterone” (Zeria Pharmaceutical Co., Ltd., priority 1994, dated 1998).

SMILES strings stand for the structures. “And” between values parts separate entries of the source, which are not always exact repeats. Equal entries are not always repeated. Where two headings read alike, the source gives them in different places.

As to `COc1cc(C(=O)c2cn(CCCC(=O)O)c3ccccc23)ccc1OC(CCN1CCN(c2ccccc2OC)CC1)c1ccc(C)cc1` (stereo not drawn) [Example 1, Potassium 4-{3-{3-methoxy-4-{1-(4-methylphenyl)-3-[4-(2-methoxyphenyl)piperazin-1-yl]propoxy}benzoyl}indol-1-yl} butanoate], the Kb at α1 -Adrenoceptor (setting [2]) is 87.1 nM; at α1 -Adrenoceptor (setting [3]) it was 380 nM. For the same compound, in experiment [1], the IC50 is 3.7 nM. Take `COc1ccccc1N1CCN(CCCOc2ccc(C(=O)c3cn(CCCC(=O)O)c4ccccc34)cc2)CC1` [Example 3, Potassium 4-{3-{4-{3-[4-(2-methoxyphenyl)piperazin-1-yl]propoxy}benzoyl}indol-1-yl}butanoate]: the Kb at α1 -Adrenoceptor was 115 nM and 75.9 nM. The same measure, in the same setting: then `CC(C)Oc1ccccc1N1CCN(CCC(Oc2ccc(C(=O)c3cn(CCCC(=O)O)c4ccccc34)cc2)c2ccccc2)CC1` (stereo not drawn) [Example 5, 4-{3-{4-{1-Phenyl-3-[4-(2-isopropoxyphenyl)piperazin-1-yl]propoxy}benzoyl}indol-1-yl}butanoic acid], with 1100 nM and 141 nM.

As for `Cc1ccc(C(CCN2CCN(c3ccccc3OC(C)C)CC2)Oc2ccc(C(=O)c3cn(CCCC(=O)O)c4ccccc34)cc2)cc1` (stereo not drawn) [Example 8, Potassium 4-{3-{4-{1-(4-methylphenyl)-3-[4-(2-isopropoxyphenyl)piperazin-1-yl]propoxy}benzoyl}indol-1-yl}butanoate], it took 0.26 nM to reach half-maximal inhibition in experiment [1] (IC50).

`COc1cc(C(=O)c2cn(CCCC(=O)O)c3ccccc23)ccc1OC(CCN1CCN(c2ccccc2OC(C)C)CC1)c1ccc(C)cc1` (stereo not drawn) [Example 11, Potassium 4-{3-{3-methoxy-4-{1-(4-methylphenyl)-3-[4-(2-isopropoxyphenyl)piperazin-1-yl]propoxy}benzoyl}indol-1-yl}butanoate]: half-maximal inhibition in experiment [1] (IC50) required 3.1 nM. Still for that read-out and setting: then `COc1cc(C(=O)c2cn(CCCC(=O)O)c3ccccc23)ccc1OC(CCN1CCN(c2ccccc2OC)CC1)c1ccc(CC(C)C)cc1` (stereo not drawn) [Example 13, Potassium 4-{3-{3-methoxy-4-{1-(4-isobutylphenyl)-3-[4-(2-methoxyphenyl)piperazin-1-yl]propoxy}benzoyl}indol-1-yl}butanoate], with 1.4 nM.

On to `COc1cc(C(=O)c2cn(CCCC(=O)O)c3ccccc23)ccc1OC(CCN1CCN(c2ccccc2OC)CC1)c1ccccc1` (stereo not drawn) [Example 14, Potassium 4-{3-{3-methoxy-4-{1-phenyl-3-[4-(2-methoxyphenyl)piperazin-1-yl]propoxy}benzoyl}indol-1-yl}butanoate], for which, at α1 -Adrenoceptor, the Kb was 389 nM and 72.4 nM. Take `CCOc1ccccc1N1CCN(CCC(Oc2ccc(C(=O)c3cn(CCCC(=O)O)c4ccccc34)cc2OC)c2ccccc2)CC1` (stereo not drawn) [Example 15, Potassium 4-{3-{3-methoxy-4-{1-phenyl-3-[4-(2-ethoxyphenyl)piperazin-1-yl]propoxy}benzoyl}indol-1-yl}butanoate]: the Kb on α1 -Adrenoceptor was 251 nM and 50.1 nM. The same compound came in with an IC50 in experiment [1] of 7.9 nM. As for `COc1cc(C(=O)c2cn(CCCC(=O)O)c3ccccc23)ccc1OC(CCN1CCN(c2ccccc2OC(C)C)CC1)c1ccccc1` (stereo not drawn) [Example 16, Potassium 4-{3-{3-methoxy-4-{1-phenyl-3-[4-(2-isopropoxyphenyl)piperazin-1-yl]propoxy}benzoyl}indol-1-yl}butanoate], the Kb on α1 -Adrenoceptor was 155 nM and 85.1 nM. On the same count and under the same terms, the figure for `COc1ccc(C(CCN2CCN(c3ccccc3OC)CC2)Oc2ccc(C(=O)c3cn(CCCC(=O)O)c4ccccc34)cc2)cc1` (stereo not drawn) [Example 20, Potassium 4-{3-{4-{1-(4-methoxyphenyl)-3-[4-(2-methoxyphenyl)piperazin-1-yl]propoxy}benzoyl}indol-1-yl}butanoate] is 692 nM and 562 nM.

`COc1ccccc1N1CCN(CCC(Oc2ccc(C(=O)c3cn(CCCC(=O)O)c4ccccc34)c(C)c2C)c2ccc(C)cc2)CC1` (stereo not drawn) [Example 22, 4-{3-{2,3-Dimethyl-4-{1-(4-methylphenyl)-3-[4-(2-methoxyphenyl)piperazin-1-yl]propoxy}benzoyl}indol-1-yl}butanoic acid] showed an IC50 in experiment [1] of 3.7 nM.

`COc1ccccc1N1CCN(CCCOc2ccc(C(=O)c3cn(CCCC(=O)O)c4ccccc34)cc2OCc2ccccc2)CC1` [Example 24, 4-{3-{3-Benzyloxy-4-{3-[4-(2-methoxyphenyl)piperazin-1-yl]propoxy}benzoyl}indol-1-yl}butanoic acid]: the Kb on α1 -Adrenoceptor was 631 nM and 100 nM. `COc1ccccc1N1CCN(CCC(Oc2ccc(C(=O)c3cn(CCCC(=O)O)c4ccccc34)cc2OCc2ccccc2)c2ccc(C)cc2)CC1` (stereo not drawn) [Example 26, 4-{3-{3-Benzyloxy-4-{1-(4-methylphenyl)-3-[4-(2-methoxyphenyl)piperazin-1-yl]propoxy}benzoyl}indol-1-yl}butanoic acid] showed an IC50 in experiment [1] of 5 nM. `COc1ccccc1N1CCN(CCC(Oc2cccc(C(=O)c3cn(CCCC(=O)O)c4ccccc34)c2)c2ccc(C)cc2)CC1` (stereo not drawn) [Example 28, Potassium 4-{3-{3-{1-(4-methylphenyl)-3-[4-(2-methoxyphenyl)piperazin-1-yl]propoxy}benzoyl}indol-1-yl}butanoate]: on α1 -Adrenoceptor, the Kb is 166 nM and 102 nM.

As to `COc1cc(C(=O)c2cn(CCCC(=O)O)c3ccccc23)ccc1O[C@@H](CCN1CCN(c2ccccc2OC)CC1)c1ccccc1` [Example 35, Potassium S-4-{3-{3-methoxy-4-{1-phenyl-3-[4-(2-methoxyphenyl)piperazin-1-yl]propoxy}benzoyl}indol-1-yl}butanoate], the Kb was 27.5 nM on α1 -Adrenoceptor (setting [2]) and 64.6 nM at α1 -Adrenoceptor (setting [3]). The compound further had an IC50 in experiment [1] of 6.8 nM. For the compound `COc1ccccc1N1CCN(CCCOc2cc(C(=O)c3cn(CCCC(=O)O)c4ccccc34)ccc2OCc2ccc(C)cc2)CC1` [Example 37, Potassium 4-{3-{4-(4-methylphenylmethoxy)-3-{3-[4-(2-methoxyphenyl)piperazin-1-yl]propoxy}benzoyl}indol-1-yl}butanoate], the Kb at α1 -Adrenoceptor is 120 nM and 19.1 nM. Further, in experiment [1], the IC50 was 3.5 nM. `COc1ccccc1N1CCN(CCCOc2cc(C(=O)c3cn(CCCC(=O)O)c4ccccc34)ccc2OCc2ccccc2)CC1` [Example 38, Potassium 4-{3-{4-benzyloxy-3-{3-[4-(2-methoxyphenyl)piperazin-1-yl]propoxy}benzoyl}indol-1-yl}butanoate]: at α1 -Adrenoceptor, the Kb was 36.3 nM and 16.6 nM.

With `COc1ccccc1N1CCN(CCCOc2cc(C(=O)c3cn(CCCC(=O)O)c4ccccc34)ccc2OCc2ccc(F)cc2)CC1` [Example 42, Potassium 4-{3-{4-(4-fluorophenylmethoxy)-3-{3-[4-(2-methoxyphenyl)piperazin-1-yl]propoxy}benzoyl}indol-1-yl}butanoate], the Kb at α1 -Adrenoceptor was 398 nM and 70.8 nM. `CCOc1ccccc1N1CCN(CCCOc2cc(C(=O)c3cn(CCCC(=O)O)c4ccccc34)ccc2OCc2ccc(C)cc2)CC1` [Example 45, Potassium 4-{3-{4-(4-methylphenylmethoxy)-3-{3-[4-(2-ethoxyphenyl)piperazin-1-yl]propoxy}benzoyl}indol-1-yl}butanoate]: on α1 -Adrenoceptor, the Kb was 56.2 nM and 34.7 nM. The same compound yielded an IC50 in experiment [1] of 1.5 nM. Consider `COc1ccccc1N1CCN(CCCCOc2cc(C(=O)c3cn(CCCC(=O)O)c4ccccc34)ccc2OCc2ccc(C)cc2)CC1` [Example 46, Potassium 4-{3-{3-{4-[4-(2-methoxyphenyl)piperazin-1-yl]butoxy}-4-(4-methylphenylmethoxy)benzoyl}indol-1-yl}butanoate], for which 1.5 nM corresponded to half-maximal inhibition in experiment [1] (IC50).
